# Test results: article PMC11111408, “Concurrent inhibition of oncogenic and wild-type RAS-GTP for cancer therapy” (Nature, 2024)
# Where “and” joins values, the source holds several entries; their conditions need not be identical. Equal values may be shown once.
# What was measured:
# [1] = tested on: Capan-1, SW620, AsPC-1, HPAC, NCI-H358, PSN1, HUPT3, HCT 116, Hs 766T, SK-MEL-30, KU1919, NCI-H1975, A375; assay: Proliferation (CTG) in human cancer cell lines; format: cell-based; settings: for Cell proliferation (CellTiter-Glo): CAPAN1
# Experimental: Data points show biological duplicates normalized to vehicle control. […] Data points show biological duplicates normalized to vehicle control from 1 of 2–26 independent experiments. Source Data
# Alternatively, cells were seeded in round-bottom ultra-low attachment 96-well plates, centrifuged at 1,000 rpm for 10 min to pellet the cells, and incubated overnight or up to 72 h to allow for 3D spheroid formation. […] Cell viability was determined by CellTiter-Glo 2.0 reagent (2D CTG) (Promega, G9243) or 3D CellTiter-Glo reagent (3D CTG) (Promega, G9683) according to the manufacturer’s protocols. Luminescence was detected using a SpectraMax M5 Plate Reader (Molecular Devices) of Perkin Elmer Enspire. Luminescence signal was normalized to vehicle-treated wells (normalized signal (%) = (luminescence (treated)/mean luminescence (vehicle)) × 100%). […] Data were plotted as log [inhibitor (M)], and a four-parameter sigmoidal concentration response model was fitted to the data to calculate EC50. […] Pa16C MEK1 mutant cells were evaluated by live-cell counting using Calcein AM and a SpectraMax i3X multi-mode detection platform (Molecular Devices). Growth percentages were calculated by normalizing the treated cell counts to their respective untreated cell counts.
# [2] = tested on: DUSP6 mRNA in NCI-H441 xenograft tumours; assay: In vivo pharmacodynamic analysis by DUSP6 qPCR in NCI-H441 CDX tumours; parameters: species or system mouse; settings: for % inhibition of DUSP6 vs control: single dose, tumor, individual animals
# Experimental: RNA extraction and analysis of DUSP6 levels by in tumour tissue were performed as previously described.
# KRAS^G13D = KRAS^G13D (Homo sapiens, UniProt P01116+P62937, G13D); assay: Cellular RAS–CYPA binding (tri-complex formation), nano-BRET in U2OS cells; format: cell-based; settings: (95% CI)
# Excerpt: KRAS4B, or other small GTPases, containing the indicated mutations were cloned in pNLF-N or pHTN plasmids for expression with an N-terminal nanoluciferase or HaloTag fusion, respectively. […] The following day, the cells were collected by Trypsin and reseeded in a white tissue culture-treated 96-well plate in OptiMem phenol red-free medium (Gibco) containing 4% FBS and a 1:1,000 dilution of NanoBRET 618 HaloTag ligand (Promega). For endpoint concentration response curves, vivazine nanoluciferase substrate was added to 1× concentration in OptiMem phenol red-free medium with 4% FBS. Varying concentrations of inhibitor were added and incubated for 1 or 4 h before the nano-BRET signal was measured on a Perkin Elmer Envision plate reader. For kinetic assays, endurazine nanoluciferase substrate was used in place of vivazine, and the plate was placed in a Cytation5 multi-mode reader pre-equilibrated to 37 °C and 5% CO2.
# GMPPNP–KRAS = target: T1, GMPPNP–KRAS (Homo sapiens, UniProt P01116, G12C); assay: SPR binding of RMC-7977 to KRAS in the absence of CYPA; settings: compound alone without CYPA
# T1 construct: His6-TEV (N); made in house; host or cells: E. coli BL21(DE3)
# HRAS WT = HRAS WT (Homo sapiens, UniProt P01112+P62937); assay: RAS binding affinity of compound-bound CYPA (Kd2), SPR; settings: steady state SPR, (95% CI)
# [3] = Cell-to-medium concentration ratio of RMC-7977 (LC–MS/MS bioanalysis of cells and supernatant); format: in vitro ADME, human
# Experimental: Cells were pelleted by centrifugation, and 1 ml of supernatant was reserved and frozen at −80 °C. Cell pellets were washed twice in cold PBS, and pre-weighed tubes containing the cell pellets were weighed prior to snap freezing in a slurry of dry ice and ethanol. […] Cell pellet samples were resuspended in cell medium (diluted as needed), then treated as supernatant. An aliquot of supernatant or resuspended cells (50 µL) was quenched with a 3× volume of acetonitrile containing the internal standard terfenadine (2.5 ng ml^−1). […] The lower limit of quantification was 0.25 ng ml^−1, and the calibration range was 0.25 to 400 ng ml^−1.
smiles,measurement,setting,value
CCn1c(-c2cc(N3CCN(C4CC4)CC3)cnc2[C@H](C)OC)c2c3cc(ccc31)-c1csc(n1)C[C@H](NC(=O)[C@H]1[C@@H]3COC[C@@H]31)C(=O)N1CCC[C@H](N1)C(=O)OCC(C)(C)C2 [RMC-7977],Cell proliferation (CellTiter-Glo),[1]; RMC-7977 1111.14 nM,6.166 and 6.972
same,Cell proliferation (CellTiter-Glo),[1]; RMC-7977 3333.41 nM,4.455 and 5.8786
same,"Concentration-response, normalized signal (replicate wells)","[1]; HCT116, RMC-7977 4.00 nM",82.5863 and 97.7262 and 86.8037 and 89.4627 and 85.957 and 97.0725 and 88.0274 and 98.1156 and 87.4457 and 99.4211 and 79.8906 and 84.8325
same,"Concentration-response, normalized signal (replicate wells)","[1]; HCT116, RMC-7977 36.01 nM",18.5896 and 19.6721 and 20.3034 and 20.9024 and 39.3935 and 41.5603 and 31.7309 and 32.7207 and 34.8483 and 44.0944 and 29.6731 and 29.9889
same,"Concentration-response, normalized signal (replicate wells)","[1]; HCT116, RMC-7977 324.09 nM",2.22 and 2.64 and 1.664 and 2.991 and 5.879 and 6.569 and 5.425 and 6.586 and 5.001 and 5.957 and 2.283 and 3.5458
same,"Concentration-response, normalized signal (replicate wells)","[1]; HCT116, RMC-7977 972.25 nM",1.618 and 2.167
same,"Concentration-response, normalized signal (replicate wells)","[1]; cell line heading above the shown rows, RMC-7977 10000.00 nM",4.998 and 6.7184
same,EC50,"[2]; Mus musculus, NCI-H441, po, read-out: EC50, total tumour concentration versus DUSP6 inhibition",130 nM
same,EC90,"[2]; Mus musculus, NCI-H441 CDX, single oral administration, read-out: EC90, tumour concentration versus DUSP6 inhibition",1450 nM
same,RMC-7977 10 mg/kg po dusp6,"[2]; NCI-H441 CDX tumour DUSP6 mRNA, single oral 10 mg/kg, 1 h, individual replicates, 10 mg/kg",34.819 and 101.252 and 98.4831
same,RMC-7977 25 mg/kg po dusp6,"[2]; NCI-H441 CDX tumour DUSP6 mRNA, single oral 25 mg/kg, 1 h, individual replicates, 25 mg/kg",26.2056 and 15.6903 and 16.7583
same,suppression of tumour DUSP6 levels,"[2]; NCI-H441 CDX, single oral dose of 10 mg kg^−1, at 8 h",91%
same,% inhibition of DUSP6 vs control,"[2]; 8h, 1 mg/kg",63.5% and 36.8% and 52.6%
same,% inhibition of DUSP6 vs control,"[2]; 8h, 5 mg/kg",53.7% and 91.7% and 1.5%
same,% inhibition of DUSP6 vs control,"[2]; 8h, 10 mg/kg",95.7% and 96.4% and 96.3% and 93.6937% and 85.7607% and 93.075%
same,% inhibition of DUSP6 vs control,"[2]; 8h, 25 mg/kg",95.995% and 81.4698% and 87.9011%
same,% inhibition of DUSP6 vs control,"[2]; 24h, 1 mg/kg",0% and 16.6%
same,% inhibition of DUSP6 vs control,"[2]; 24h, 5 mg/kg",6.8% and 29.4% and 61.8%
same,% inhibition of DUSP6 vs control,"[2]; 24h, 10 mg/kg",89.7% and 90.2% and 86.9% and 86.5288% and 67.1731% and 84.3639%
same,% inhibition of DUSP6 vs control,"[2]; 24h, 25 mg/kg",94.1768% and 94.6786% and 96.3905%
same,% inhibition of DUSP6 vs control,"[2]; 48h, 1 mg/kg",0% and 32.5%
same,% inhibition of DUSP6 vs control,"[2]; 48h, 5 mg/kg",3.9% and 33.4% and 22.2%
same,% inhibition of DUSP6 vs control,"[2]; 48h, 10 mg/kg",72.3% and 74.6% and 69.6% and 56.232% and 64.817% and 89.3572%
same,% inhibition of DUSP6 vs control,"[2]; 48h, 25 mg/kg",81.914% and 86.388% and 94.0545%
same,% inhibition of DUSP6 vs control,"[2]; 72h, 5 mg/kg",0% and 11.9%
same,% inhibition of DUSP6 vs control,"[2]; 72h, 10 mg/kg",0.2% and 45.2% and 48.1% and 87.4744% and 67.1731%
same,% inhibition of DUSP6 vs control,"[2]; 72h, 25 mg/kg",87.2112% and 72.4915% and 81.7249%
same,EC50,KRAS^G13D,4.99 nM
same,binding to GMPPNP–KRAS,GMPPNP–KRAS,neither RMC-7977 nor CYPA alone exhibited any measurable binding
same,Kd,HRAS WT,94.7 nM
same,LC/MS bioanalysis of cells treated with RMC-7977,"[3]; AsPC-1, RMC-7977 10 nM",161.5 and 241.3 and 143.0
same,LC/MS bioanalysis of cells treated with RMC-7977,"[3]; AsPC-1, RMC-7977 100 nM",76.8 and 68.8 and 89.6
same,LC/MS bioanalysis of cells treated with RMC-7977,"[3]; AsPC-1, RMC-7977 1000 nM",50.6 and 44.9
